Laboratory results from patent US20100119607A1, “BIOENHANCED COMPOSITIONS” (Rubicon Research Pvt. Ltd., priority 2005, published 2010).
Values after ≈ are worked out from the molar mass of the structure shown. Structures can show the parent of a compound that is named as a salt. Where two headings read alike, the source gives them in different places. Blank lines part the entries; values can stand above or below the molecule they belong to.

Key:
[1] = Solubility of candesartan cilexetil dispersions in 0.1N HCl; format: physicochemical; settings: simulated gastric fluid
[2] = 0.1N HCL with 0.5% SLS, USP Type II, 50 RPM
[3] = background statement in detailed description; cited from earlier work
[4] = Solubility of eprosartan mesylate solid dispersions in 0.1N HCl; format: physicochemical; settings: simulated gastric fluid, thermodynamic from solid

- solubility [1]: 0.51 µg/mL (≈ 0.835 µM)
SMILES: CCOc1nc2cccc(C(=O)OC(C)OC(=O)OC3CCCCC3)c2n1Cc1ccc(-c2ccccc2-c2nnn[nH]2)cc1 (centres unmarked) [Candesartan cilexetil, candesartan cilexetil]

- % Cum. Dissolved ([2]; 0 minutes): 0%
- % Cum. Dissolved ([2]; 5 minutes): 1.0%
- % Cum. Dissolved ([2]; 10 minutes): 4.1%
- % Cum. Dissolved ([2]; 15 minutes): 6.7%
- % Cum. Dissolved ([2]; 30 minutes): 6.5%
- % Cum. Dissolved ([2]; 60 minutes): 9.7%
- % Cum. Dissolved ([2]; 120 minutes): 15.7%
- % Cum. Dissolved ([2]; 120 minutes, listed as pure valsartan): 15%
SMILES: CCCCC(=O)N(Cc1ccc(-c2ccccc2-c2nnn[nH]2)cc1)[C@H](C(=O)O)C(C)C [Valsartan, valsartan]
- bioavailability [3]: 10-25%

- solubility [4]: 712 µg/mL
SMILES: CCCCc1ncc(/C=C(\Cc2cccs2)C(=O)O)n1Cc1ccc(C(=O)O)cc1 [Eprosartan mesylate, eprosartan mesylate]
